Data: patent publication US11331299B2, “Medicinal use of serrulatane diterpenes” (The University of Sydney, priority 2016, dated 2022)
Like-named read-outs stand apart in the source and are kept apart here.

Tested on: 280 human cancer cell lines
Test: OncoPanel cell proliferation assay (10-day)
Type: cell-based
Settings: Homo sapiens; for EC50: read-out: Cell Count EC50; for GI50: read-out: Cell Count GI50; for IC50: read-out: Cell Count IC50
[1] = C-4-II, C-4 II, Female GU - Cervix
[2] = C-33-A, C-33A, Female GU - Cervix
[3] = CAL-62, CAL-62, Endocrine - Thyroid
[4] = CCF-STTG1, CCF-STTG1, CNS - Glioma
[5] = CGTH-W-1, CGTH-W-1, Endocrine - Thyroid
[6] = CHP-212, CHP-212, CNS - Neuroblastoma
[7] = COLO-320-HSR, Colo 320 HSR, Colon
[8] = COLO-829, COLO 829, Skin (Melanoma)
[9] = COR-L105, COR-L105, Lung - NSCLC
[10] = Ca-Ski, Ca Ski, Female GU - Ovary

With CC(C)=CCC[C@H](CO)[C@@H]1CC[C@@H](C)c2c1cc(C)c(O)c2O [Compound 1, 7,8,18-trihydroxyserrulat-14-ene] as the molecule, how does the EC50 (BT-474, BT474, Breast) read?
The EC50 was 5.41 µM.

And the GI50 (BT-474, BT474, Breast)?
Its GI50 is 4.95 µM.

And the IC50 (BT-474, BT474, Breast)?
Its IC50 is 5.46 µM.

What about the EC50 (BT-549, BT-549, Breast) of the same molecule?
The EC50 was 3.14 µM.

And the GI50 (BT-549, BT-549, Breast)?
Its GI50 is 3.12 µM.

And the IC50 (BT-549, BT-549, Breast)?
The IC50 was 3.14 µM.

And the EC50 (BV-173, BV-173, Leukemia)?
Its EC50 is 3.8 µM.

What about the GI50 (BV-173, BV-173, Leukemia) of the same molecule?
The GI50 was 3.79 µM.

And the IC50 (BV-173, BV-173, Leukemia)?
Its IC50 is 3.8 µM.

What about the EC50 (BXPC-3, BxPC-3, Pancreas) of the same molecule?
The EC50 was 3.29 µM.

What about the GI50 (BXPC-3, BxPC-3, Pancreas) of the same molecule?
The GI50 was 3.29 µM.

And the IC50 (BXPC-3, BxPC-3, Pancreas)?
The IC50 was 3.3 µM.

And the EC50 (BeWo, Placenta)?
Its EC50 is 9.06 µM.

What about the GI50 (BeWo, Placenta) of the same molecule?
Its GI50 is 8.92 µM.

What about the IC50 (BeWo, Placenta) of the same molecule?
The IC50 was 9.06 µM.

What about the EC50 (C32, Skin (Melanoma)) of the same molecule?
Its EC50 is 2.11 µM.

And the GI50 (C32, Skin (Melanoma))?
The GI50 was 1.81 µM.

And the IC50 (C32, Skin (Melanoma))?
The IC50 was 2.11 µM.

What about the EC50 [1] of the same molecule?
Its EC50 is 1.09 µM.

And the GI50 [1]?
The GI50 was 1.09 µM.

What about the IC50 [1] of the same molecule?
The IC50 was 1.1 µM.

And the EC50 [2]?
Its EC50 is 7.18 µM.

What about the GI50 [2] of the same molecule?
Its GI50 is 7.08 µM.

What about the IC50 [2] of the same molecule?
The IC50 was 7.18 µM.

What about the EC50 (CA46, CA46, Lymphoma) of the same molecule?
The EC50 was 2.27 µM.

And the GI50 (CA46, CA46, Lymphoma)?
Its GI50 is 2.26 µM.

And the IC50 (CA46, CA46, Lymphoma)?
The IC50 was 2.27 µM.

What about the EC50 (CAKI-1, Caki-1, Kidney) of the same molecule?
The EC50 was 2.86 µM.

What about the GI50 (CAKI-1, Caki-1, Kidney) of the same molecule?
The GI50 was 2.75 µM.

What about the IC50 (CAKI-1, Caki-1, Kidney) of the same molecule?
The IC50 was 2.86 µM.

And the EC50 (CAKI-2, Caki-2, Kidney)?
Its EC50 is 4.38 µM.

And the GI50 (CAKI-2, Caki-2, Kidney)?
The GI50 was 4.35 µM.

What about the IC50 (CAKI-2, Caki-2, Kidney) of the same molecule?
The IC50 was 4.38 µM.

And the EC50 (CAL-27, Cal 27, Head and Neck)?
Its EC50 is 2.16 µM.

And the GI50 (CAL-27, Cal 27, Head and Neck)?
The GI50 was 2.15 µM.

What about the IC50 (CAL-27, Cal 27, Head and Neck) of the same molecule?
The IC50 was 2.16 µM.

What about the EC50 [3] of the same molecule?
The EC50 was 1.69 µM.

And the GI50 [3]?
The GI50 was 1.69 µM.

And the IC50 [3]?
The IC50 was 1.69 µM.

What about the EC50 (CAMA-1, CAMA-1, Breast) of the same molecule?
Its EC50 is 3.51 µM.

And the GI50 (CAMA-1, CAMA-1, Breast)?
The GI50 was 3.4 µM.

And the IC50 (CAMA-1, CAMA-1, Breast)?
The IC50 was 3.51 µM.

What about the EC50 (CAPAN-1, Capan-1, Pancreas) of the same molecule?
The EC50 was > 30 µM.

And the GI50 (CAPAN-1, Capan-1, Pancreas)?
Its GI50 is > 30 µM.

And the IC50 (CAPAN-1, Capan-1, Pancreas)?
Its IC50 is > 30 µM.

And the EC50 [4]?
The EC50 was 5.79 µM.

And the GI50 [4]?
The GI50 was 5.24 µM.

And the IC50 [4]?
The IC50 was 6.6 µM.

And the EC50 (CCRF-CEM, CCRFCEM, Leukemia)?
Its EC50 is 4.73 µM.

What about the GI50 (CCRF-CEM, CCRFCEM, Leukemia) of the same molecule?
Its GI50 is 4.71 µM.

And the IC50 (CCRF-CEM, CCRFCEM, Leukemia)?
The IC50 was 4.73 µM.

What about the EC50 (CEM/C1, CEM-C1, Leukemia) of the same molecule?
Its EC50 is 1.96 µM.

What about the GI50 (CEM/C1, CEM-C1, Leukemia) of the same molecule?
The GI50 was 1.95 µM.

And the IC50 (CEM/C1, CEM-C1, Leukemia)?
The IC50 was 1.96 µM.

What about the EC50 (CFPAC-1, CFPAC-1, Pancreas) of the same molecule?
The EC50 was 3.65 µM.

What about the GI50 (CFPAC-1, CFPAC-1, Pancreas) of the same molecule?
The GI50 was 3.65 µM.

And the IC50 (CFPAC-1, CFPAC-1, Pancreas)?
The IC50 was 3.66 µM.

What about the EC50 [5] of the same molecule?
The EC50 was 1.2 µM.

What about the GI50 [5] of the same molecule?
The GI50 was 1.2 µM.

And the IC50 [5]?
The IC50 was 1.2 µM.

What about the EC50 (CHL-1, CHL-1, Skin (Melanoma)) of the same molecule?
Its EC50 is 1.37 µM.

And the GI50 (CHL-1, CHL-1, Skin (Melanoma))?
The GI50 was 1.36 µM.

And the IC50 (CHL-1, CHL-1, Skin (Melanoma))?
Its IC50 is 1.37 µM.

What about the EC50 [6] of the same molecule?
The EC50 was 1.43 µM.

And the GI50 [6]?
The GI50 was 1.41 µM.

And the IC50 [6]?
Its IC50 is 1.43 µM.

And the EC50 (CML-T1, CML-T1, Leukemia)?
Its EC50 is 1.93 µM.

What about the GI50 (CML-T1, CML-T1, Leukemia) of the same molecule?
Its GI50 is 1.93 µM.

And the IC50 (CML-T1, CML-T1, Leukemia)?
Its IC50 is 1.93 µM.

What about the EC50 (COLO 201, Colo 201, Colon) of the same molecule?
The EC50 was 0.92 µM.

What about the GI50 (COLO 201, Colo 201, Colon) of the same molecule?
The GI50 was 0.92 µM.

What about the IC50 (COLO 201, Colo 201, Colon) of the same molecule?
The IC50 was 0.92 µM.

And the EC50 (COLO 205, Colo 205, Colon)?
Its EC50 is 1.31 µM.

And the GI50 (COLO 205, Colo 205, Colon)?
Its GI50 is 1.31 µM.

And the IC50 (COLO 205, Colo 205, Colon)?
The IC50 was 1.31 µM.

What about the EC50 (COLO 320DM, Colon) of the same molecule?
The EC50 was 3.2 µM.

What about the GI50 (COLO 320DM, Colon) of the same molecule?
Its GI50 is 3.18 µM.

And the IC50 (COLO 320DM, Colon)?
Its IC50 is 3.2 µM.

What about the EC50 [7] of the same molecule?
Its EC50 is 3.09 µM.

What about the GI50 [7] of the same molecule?
The GI50 was 3.13 µM.

What about the IC50 [7] of the same molecule?
Its IC50 is 3.13 µM.

What about the EC50 [8] of the same molecule?
Its EC50 is 0.68 µM.

What about the GI50 [8] of the same molecule?
The GI50 was 0.62 µM.

And the IC50 [8]?
Its IC50 is 0.68 µM.

What about the EC50 (COR-L23, COR-L23, Lung - NSCLC) of the same molecule?
Its EC50 is 7.18 µM.

What about the GI50 (COR-L23, COR-L23, Lung - NSCLC) of the same molecule?
Its GI50 is 7.14 µM.

And the IC50 (COR-L23, COR-L23, Lung - NSCLC)?
The IC50 was 7.18 µM.

And the EC50 [9]?
The EC50 was 1.44 µM.

What about the GI50 [9] of the same molecule?
The GI50 was 1.42 µM.

And the IC50 [9]?
Its IC50 is 1.45 µM.

And the EC50 (CRO-AP2, CRO-AP2, Lymphoma)?
The EC50 was 5.72 µM.

And the GI50 (CRO-AP2, CRO-AP2, Lymphoma)?
The GI50 was 5.66 µM.

And the IC50 (CRO-AP2, CRO-AP2, Lymphoma)?
Its IC50 is 5.72 µM.

What about the EC50 [10] of the same molecule?
The EC50 was 5.28 µM.

And the GI50 [10]?
The GI50 was 5.24 µM.

What about the IC50 [10] of the same molecule?
The IC50 was 5.29 µM.

What about the EC50 (Calu-1, Calu1, Lung - NSCLC) of the same molecule?
The EC50 was 3.1 µM.

And the GI50 (Calu-1, Calu1, Lung - NSCLC)?
Its GI50 is 3.07 µM.

And the IC50 (Calu-1, Calu1, Lung - NSCLC)?
Its IC50 is 3.1 µM.

And the EC50 (Calu-6, Calu6, Lung - NSCLC)?
The EC50 was 9.24 µM.

What about the GI50 (Calu-6, Calu6, Lung - NSCLC) of the same molecule?
Its GI50 is 8.59 µM.
